Experimental data published in patent US20100022514A1, “Heterocycle Compounds and Methods of Use Thereof” (NORVARTIS AG, priority 2006, published 2010).

Assays:
[1] = tested on: p21 promoter (p21-luc) in H1299 cells; experiment: p21 promoter luciferase assay using stably transfected p21-luc in H1299 cells; type: cell-based; conditions: Homo sapiens, NCI-H1299
Description: The cell lines used are derived from H1299 (p21-luc). The growth media used is RPMI 1640, 10% FBS, 1% Pen/Strep and the selection media added is 500 μg/mL Geneticin (Gibco). The buffer used is 5× cell culture lysis buffer (Promega #E1531), stored at −20 C and the Luciferase assay reagent (Promega #E1483) is stored at −70° C. The results of the assay are analyzed using Wallac Software.
To assay Luciferase, the cell culture medium is removed after one day of growth and the flasks are washed once with PBS. The cells are trypsinized in 20 mL of media and the trypsin is neutralized. The cells are counted (0.5-1 mL) on a Vi-Cell XR cell viability analyzer.
Cells are then diluted to a concentration of approximately 5000 cells/200 μL, and 190 μL samples are aliquoted into each well of a Costar white 96-well TC treated white bottom plate with lid (Costar #3917). Plates are then incubated overnight at 37 C.
After a further day, a sample of the compound is added to the wells for assay.
After a further day, the cells are lysed and the luciferase activity of the lysed cells is measured. Each well is washed twice with PBS and 20 μL/well of 1× cell culture lysis buffer (dilute 5× to 1× in distilled water) is added to each well. The microtiter plates are then shaken on a microtiter plate shaker for 20 minutes at room temperate at a speed setting of 5-6. After removal from the shaker, 100 μL of Luciferase Reagent is added to each well. Each microtiter plate is then read on Wallac Envision instrument.

[2] = target: T1, HDAC-1 (Homo sapiens, UniProt Q13547); experiment: Deacetylase fluorescence assay (HDAC-1); type: biochemical; conditions: read-out: HDAC-1 IC50
T1 construct: made in house
Description: Conventional methods are used to express deacetylase enzymes and purify them from lysed cells. The following example describes an exemplary procedure, however equivalent procedures are within the scope of the invention.
The cell line used is a derivative of 293 cells overexpressing a fusion of the gene encoding each deacetylase protein with a nucleotide sequence encoding the Flag marker.
Cells are grown in Optimem, 2% Fetal Calf Serum, Pen/Strep. For enzyme preparation, Lysis buffer (IPLS) is 50 mM Tris-HCl, pH 7.5, 120 mM NaCl, 0.5 mM EDTA and 0.5% Nonidet P-40, to which is added one tablet of Protease inhibitors (Roche 11836170001) per 10 ml buffer. Other buffers are IPHS, which is IPLS containing 1 M NaCl; TBS (Sigma #T5912) dilute 10× stock to 1× with dH2O; HD buffer: 10 mM Tris pH 8.0 (1M Stock) 10 mM NaCl (5M Stock), 10% glycerol, and for dialysis: 400 μM PMSF is added (for 2 L: use 8 ml 100 mM Stock). Protease inhibitors (Complete mini, Boehringer Mannheim), 1 tablet/10 mL are added to all buffers but not used in buffers for enzyme assays.
Cells are harvested without using trypsin, and most cells are obtained easily in PBS, with gentle striking or agitation of flasks if necessary. More adherent cells are scraped in PBS. Cells are grown in 500 cm^2 trays, from which about half of the media is aspirated (50 ml total), then cells are scraped in the rest of the media and transferred to a centrifuge tube. Trays are washed with 25 ml cold PBS, scraped again to collect additional cells, and centrifuged at 1500 rpm at 4° C. for 5 min. Cells are washed at least 3 times in PBS to remove growth media, pelleting cells after each wash by centrifugation at 1500 rpm for 5 minutes. After washing, PBS is removed and the resulting cell pellet frozen at −80° C. for storage prior to purification.
For purification, cells are resuspended in lysis buffer, 12 ml of IPLS for cells collected from 10 500 cm trays. Cells are lysed at 4° C. for 3 hrs with rocking, and debris is removed by centrifugation for 20 min at 17,000 rpm in 30 ml centrifuge tubes. If supernatant is not clear afterward, centrifugation of the supernatant is repeated. Protein concentration of the whole cell lysate is determined (generally in the range of about 2-5 mg/ml).
For immunoprecipitation per mg of protein, 15 μL of anti-Flag M2-Agarose Affinity beads (Sigma #A2220) is used. Beads are prepared by washing 3 times with 10× bead volume of PBS and 1 time with IPLS, with centrifugation of the washes at 1500 rpm for 5 min. Whole cell lysate is incubated with the Ab-beads overnight at 4° C. Then beads are centrifuged and washed in 5× volume of the following buffers: three times in IPLS (30 sec at 4° C., spin at 1500 RPM for 5 min); three times in IPHS; and three times in TBS buffer. After each centrifugation, the supernatant is aspirated, leaving the pellet as dry as possible but avoiding sucking up any of the beads.
To elute the enzyme, beads are resuspended in 5× bead volume of TBS with protease inhibitor (Roche 11836170001) 1 tablet/10 mL. Enzyme is eluted with 400 μg/mL Flag peptide (Sigma #F-3290) for 3 hrs at 4° C. on rotator. Then beads are centrifuged, and the supernatant is transferred to a new tube to which is added 1/10 volume of glycerol. The supernatant is transferred to a dialysis cassette (Pierce #66410) using a 3 cc syringe and 18 G needle, and is dialyze sup in 2 L HD buffer for 2 hrs at 4° C. (1 L/hour). The resulting purified deacetylase is divided into aliquots (300 μL/tube), is snap frozen in dry ice bath, and is stored at −80° C.
For assay of deacetylase an assay based on Deacetylase Fluorescent Activity Assay/Drug Discovery Kit (BioMol # AK500) is used, however any equivalent deacetylase assay is within the scope of the invention.
The Fluorescent Assay Buffer (FAB) contains: 25 mM Tris-HCl, pH 8.0, 137 mM NaCl, 2.7 mM KCl and 1 mM MgCl2. […]

T1 sequence (Q13547 whole entry): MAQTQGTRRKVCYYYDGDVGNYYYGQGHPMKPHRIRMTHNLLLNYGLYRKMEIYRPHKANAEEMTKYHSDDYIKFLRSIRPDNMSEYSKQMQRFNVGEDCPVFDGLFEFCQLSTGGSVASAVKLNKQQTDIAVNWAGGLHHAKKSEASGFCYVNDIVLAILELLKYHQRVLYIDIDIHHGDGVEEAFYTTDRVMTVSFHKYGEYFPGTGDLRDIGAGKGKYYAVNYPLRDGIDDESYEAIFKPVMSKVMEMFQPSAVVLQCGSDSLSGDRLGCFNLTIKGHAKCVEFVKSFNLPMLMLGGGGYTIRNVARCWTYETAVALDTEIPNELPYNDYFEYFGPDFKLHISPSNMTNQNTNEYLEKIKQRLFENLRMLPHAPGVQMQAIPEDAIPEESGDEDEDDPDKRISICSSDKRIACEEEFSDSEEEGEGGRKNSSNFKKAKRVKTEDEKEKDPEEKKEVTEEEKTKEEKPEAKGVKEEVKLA

Structure (SMILES)	IC50 [2] [nM]	AC50 [1] [nM]
O=C(/C=C/c1ccc2c(c1)CN(Cc1ccccc1)C2)NO [Example 1, (E)-3-(2-Benzyl-2,3-dihydro-1H-isoindol-5-yl)-N-hydroxy-acrylamide]	100 to 1000	> 1000
O=C(/C=C/c1ccc2c(c1)CN(S(=O)(=O)c1ccccc1)C2)NO [Example 5, (E)-3-(2-Benzenesulfonyl-2,3-dihydro-1H-isoindol-5-yl)-N-hydroxy-acrylamide]	100 to 1000	> 1000
O=C(/C=C/c1ccc2c(c1)CN(S(=O)(=O)c1ccncc1)C2)NO [Example 6, (E)-N-Hydroxy-3-[2-(pyridine-4-sulfonyl)-2,3-dihydro-1H-isoindol-5-yl]-acrylamide]	100 to 1000	> 1000
O=C(/C=C/c1ccc2c(c1)CN(S(=O)(=O)c1cccnc1)C2)NO [Example 7, (E)-N-Hydroxy-3-[2-(pyridine-3-sulfonyl)-2,3-dihydro-1H-isoindol-5-yl]-acrylamide]	100 to 1000	> 1000
Cc1ccc(S(=O)(=O)N2Cc3ccc(/C=C/C(=O)NO)cc3C2)cc1 [Example 8, (E)-N-Hydroxy-3-[2-(toluene-4-sulfonyl)-2,3-dihydro-1H-isoindol-5-yl]-acrylamide]	< 100	> 1000
COc1ccc(S(=O)(=O)N2Cc3ccc(/C=C/C(=O)NO)cc3C2)cc1 [Example 9, (E)-N-Hydroxy-3-[2-(4-methoxy-benzenesulfonyl)-2,3-dihydro-1H-isoindol-5-yl]-acrylamide]	< 100	> 1000
O=C(/C=C/c1ccc2c(c1)CN(S(=O)(=O)c1ccc(C(F)(F)F)cc1)C2)NO [Example 10, (E)-N-Hydroxy-3-[2-(4-trifluoromethyl-benzenesulfonyl)-2,3-dihydro-1H-isoindol-5-yl]-acrylamide]	100 to 1000	> 1000
Cc1cccc(S(=O)(=O)N2Cc3ccc(/C=C/C(=O)NO)cc3C2)c1 [Example 11, (E)-N-Hydroxy-3-[2-(toluene-3-sulfonyl)-2,3-dihydro-1H-isoindol-5-yl]-acrylamide]	< 100	> 1000
O=C(/C=C/c1ccc2c(c1)CN(S(=O)(=O)c1cccc(C(F)(F)F)c1)C2)NO [Example 12, (E)-N-Hydroxy-3-[2-(3-trifluoromethyl-benzenesulfonyl)-2,3-dihydro-1H-isoindol-5-yl]-acrylamide]	100 to 1000	> 1000
COc1cccc(S(=O)(=O)N2Cc3ccc(/C=C/C(=O)NO)cc3C2)c1 [Example 13, (E)-N-Hydroxy-3-[2-(3-methoxy-benzenesulfonyl)-2,3-dihydro-1H-isoindol-5-yl]-acrylamide]	< 100	> 1000
Cc1ccccc1S(=O)(=O)N1Cc2ccc(/C=C/C(=O)NO)cc2C1 [Example 14, (E)-N-Hydroxy-3-[2-(toluene-2-sulfonyl)-2,3-dihydro-1H-isoindol-5-yl]-acrylamide]	100 to 1000	> 1000
Cn1cnc(S(=O)(=O)N2Cc3ccc(/C=C/C(=O)NO)cc3C2)c1 [Example 15, (E)-N-Hydroxy-3-[2-(1-methyl-1H-imidazole-4-sulfonyl)-2,3-dihydro-1H-isoindol-5-yl]-acrylamide]	100 to 1000	> 1000
CCCCS(=O)(=O)N1Cc2ccc(/C=C/C(=O)NO)cc2C1 [Example 19, (E)-3-[2-(Butane-1-sulfonyl)-2,3-dihydro-1H-isoindol-5-yl]-N-hydroxy-acrylamide]	100 to 1000	> 1000
O=C(/C=C/c1ccc2c(c1)CN(S(=O)(=O)Cc1ccccc1)C2)NO [Example 20, (E)-N-Hydroxy-3-(2-phenylmethanesulfonyl-2,3-dihydro-1H-isoindol-5-yl)-acrylamide]	100 to 1000	> 1000

More lines, main results first:

IC50 [2] [nM]	Structure (SMILES)	AC50 [1] [nM]
100 to 1000	CC(C)(C)OC(=O)N1Cc2ccc(/C=C/C(=O)NO)cc2C1 [Example 2, 5-((E)-2-Hydroxycarbamoyl-vinyl)-1,3-dihydro-isoindole-2-carboxylic acid tert-butyl ester]	> 1000
100 to 1000	CC(C)(C)C(=O)N1Cc2ccc(/C=C/C(=O)NO)cc2C1 [Example 3, (E)-3-[2-(2,2-Dimethyl-propionyl)-2,3-dihydro-1H-isoindol-5-yl]-N-hydroxy-acrylamide]	> 1000
100 to 1000	CS(=O)(=O)N1Cc2ccc(/C=C/C(=O)NO)cc2C1 [Example 4, (E)-N-Hydroxy-3-(2-methanesulfonyl-2,3-dihydro-1H-isoindol-5-yl)-acryl amide]	> 1000
100 to 1000	O=C(/C=C/c1ccc2c(c1)CN(C(=O)c1cccc(C(F)(F)F)c1)C2)NO [Example 16, (E)-N-Hydroxy-3-[2-(3-trifluoromethyl-benzoyl)-2,3-dihydro-1H-isoindol-5-yl]-acrylamide]	> 1000
100 to 1000	O=C(/C=C/c1ccc2c(c1)CN(C(=O)c1cccnc1)C2)NO [Example 17, (E)-N-Hydroxy-3-[2-(pyridine-3-carbonyl)-2,3-dihydro-1H-isoindol-5-yl]-acrylamide]	> 1000
< 100	O=C(/C=C/c1ccc2c(c1)CN(C(=O)c1cccs1)C2)NO [Example 18, (E)-N-Hydroxy-3-[2-(thiophene-2-carbonyl)-2,3-dihydro-1H-isoindol-5-yl]-acrylamide]	> 1000
100 to 1000	O=C(/C=C/c1ccc2c(c1)CN(C(=O)C1CCCCC1)C2)NO [Example 21, (E)-3-(2-Cyclohexanecarbonyl-2,3-dihydro-1H-isoindol-5-yl)-N-hydroxy-acrylamide]	> 1000
100 to 1000	O=C(/C=C/c1ccc2c(c1)CN(C(=O)C1CCCC1)C2)NO [Example 22, (E)-3-(2-Cyclopentanecarbonyl-2,3-dihydro-1H-isoindol-5-yl)-N-hydroxy-acrylamide]	> 1000
100 to 1000	O=C(/C=C/c1ccc2c(c1)CN(C(=O)C1CC1)C2)NO [Example 23, (E)-3-(2-Cyclopropanecarbonyl-2,3-dihydro-1H-isoindol-5-yl)-N-hydroxy-acrylamide]	> 1000
100 to 1000	O=C(/C=C/c1ccc2c(c1)CN(S(=O)(=O)C1CC1)C2)NO [Example 24, (E)-3-(2-Cyclopropanesulfonyl-2,3-dihydro-1H-isoindol-5-yl)-N-hydroxy-acrylamide]	> 1000
